In PMC12115184, “Metformin-Induced Apoptosis Is Mediated Through Mitochondrial VDAC1” (Pharmaceuticals, 2025):

Biological target: T1, VDAC1 (Rattus norvegicus, UniProt Q9Z2L0)
T1 construct: VDAC1 purified from rat liver mitochondria (channel conductance)
Assay: planar lipid bilayer conductance of reconstituted purified VDAC1; MST with N-terminal peptide
Type: biochemical

T1 sequence (Q9Z2L0 2-283): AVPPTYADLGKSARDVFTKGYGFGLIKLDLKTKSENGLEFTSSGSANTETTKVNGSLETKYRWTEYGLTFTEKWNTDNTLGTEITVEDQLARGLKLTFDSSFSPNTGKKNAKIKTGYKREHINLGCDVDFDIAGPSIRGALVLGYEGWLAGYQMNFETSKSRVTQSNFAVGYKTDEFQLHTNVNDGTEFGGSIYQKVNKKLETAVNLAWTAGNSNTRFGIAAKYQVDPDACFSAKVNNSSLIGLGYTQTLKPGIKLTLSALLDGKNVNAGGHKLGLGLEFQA

## CN(C)C(=N)N=C(N)N [metformin, 3-(diaminomethylidene)-1,1-dimethylguanidine]
  planar lipid bilayer conductance of reconstituted purified VDAC1; MST with N-ter: Metformin reduced VDAC1 conductance only after the channel was exposed to a high voltage step.
